Data reported in patent US10662204B2 (PFIZER INC., priority 2018, dated 2020).

Key:
[1] = biological target: T1, GDP-loaded KRAS (1-169) G12C, C51S, C80L, C118S (Homo sapiens, UniProt P01116, C118S/C51S/C80L/G12C); assay: Mass Spectrometry Reactivity Assay (MSRA): covalent adduct of compound and KRAS G12C, Percent Modification; format: binding; conditions: for MSRA (% modification) 5.0 μM 0.017 hr / MSRA (% modification) 5.0 μM 0.25 hr: 5.0 μM compound; for MSRA (% modification) 10 μM 0.25 hr / MSRA (% modification) 10 μM 0.50 hr: 10 μM compound
T1 construct: GDP-loaded KRAS (1-169) G12C, C51S, C80L, C118S
Summary of the method: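 Covalent labelling is measured by intact mass: deconvoluted modified and unmodified peak intensities yield percent modification. Compound, usually 5 μM or 10 μM final, reacts at room temperature with 5 μM GDP-bound KRAS G12C (1-169, C51S/C80L/C118S) in Hepes pH 7.5/NaCl/glycerol, sampled at 1, 15, 30, 60 min.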

[2] = biological target: KRAS G12C (Homo sapiens, UniProt P01116, G12C); assay: Cell Activity Assay: accumulation of GDP-bound KRAS G12C in MIAPaCa-2 cells (Raf-1 RBD capture, MSD readout); format: cell-based; design: endogenous in cells; host or cells: MIAPaCa-2; conditions: 6 hours, assay limit is 30.00
Summary of the method: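 IC50 came from a 4-parameter fit of Ras signal normalized between DMSO and full-inhibition controls. Readout: lysate GTP-Ras bound to immobilized Raf-1 RBD, quantified with pan-Ras antibody and MSD electrochemiluminescence. Lysates derived from MIAPaCa-2 cells treated 6 h with serially diluted compound, 0.3% DMSO.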

C=CC(=O)N1CCN(c2nc(O[C@@H]3CN(C)C[C@H]3OC)nc3c(Oc4c(Cl)c(F)cc5[nH]ncc45)nccc23)[C@H](C)C1 [Example 34I, 1-[(3R)-4-(8-[(5-chloro-6-fluoro-1H-indazol-4-yl)oxy]-2-{[(3R,4R)-4-methoxy-1-methyl-pyrrolidin-3-yl]oxy}pyrido [3,4-d]pyrimidin-4-yl)-3-methyl-piperazin-1-yl]prop-2-en-1-one]
MSRA (% modification) 5.0 μM 0.017 hr [1]: 52%
IC50 [2]: 0.935 µM

C=CC(=O)N1CCN(c2nc(OC[C@@H]3CCCN3C)nc3c(Oc4c(C)c(Cl)cc5[nH]ncc45)nccc23)CC1 [Example 13B, 1-[4-(8-[(6-chloro-5-methyl-1H-indazol-4-yl)oxy]-2-{[(2S)-1-methylpyrrolidin-2-yl]methoxy}pyrido[3,4-d]pyrimidin-4-yl)piperazin-1-yl]prop-2-en-1-one]
MSRA (% modification) 5.0 μM 0.25 hr [1]: 19%
MSRA (% modification) 10 μM 0.25 hr [1]: 74%
IC50 [2]: 0.16 µM

C=CC(=O)N1CCN(c2nc(O[C@@H]3CN(C)C[C@@H]3OC)nc3c(Oc4c(Cl)c(F)cc5[nH]ncc45)nc(Cl)cc23)CC1 (racemic) [Example 26G, rac-1-[4-(6-chloro-8-[(5-chloro-6-fluoro-1H-indazol-4-yl)oxy]-2-{[(3R,4S)-4-methoxy-1-methylpyrrolidin-3-yl]oxy}pyrido[3,4-d]pyrimidin-4-yl)piperazin-1-yl]prop-2-en-1-one]
MSRA (% modification) 5.0 μM 0.017 hr [1]: 35%
IC50 [2]: 0.195 µM

C=CC(=O)N1CCN(c2ncnc3c(Oc4c(Cl)c(C)cc5[nH]ncc45)cccc23)CC1 [Example 06C, 1-(4-{8-[(5-chloro-6-methyl-1H-indazol-4-yl)oxy]quinazolin-4-yl}piperazin-1-yl)prop-2-en-1-one]
MSRA (% modification) 10 μM 0.50 hr [1]: 53%
IC50 [2]: 1.62 µM

C=CC(=O)N1CCN(c2nc(Oc3cccc4c3CCN(C)C4)nc3c(Oc4c(Cl)ccc5[nH]ncc45)nccc23)CC1 [Example 48I, 1-(4-{8-[(5-chloro-1H-indazol-4-yl)oxy]-2-[(2-methyl-1,2,3,4-tetrahydro-isoquinolin-5-yl)oxy]pyrido [3,4-d]pyrimidin-4-yl}piperazin-1-yl)prop-2-en-1-one]
MSRA (% modification) 5.0 μM 0.017 hr [1]: 67%
IC50 [2]: 0.006 µM

C=CC(=O)N1CCN(c2nc(N3CC(C)(C#N)C3)nc3c(Oc4c(Cl)c(F)cc5[nH]ncc45)nc(Cl)cc23)CC1 [Example 02G, 1-{4-(4-acryloylpiperazin-1-yl)-6-chloro-8-[(5-chloro-6-fluoro-1H-indazol-4-yl)oxy]pyrido[3,4-d]pyrimidin-2-yl}-3-methylazetidine-3-carbonitrile]
MSRA (% modification) 5.0 μM 0.25 hr [1]: 73%
MSRA (% modification) 10 μM 0.25 hr [1]: 75%
IC50 [2]: 0.584 µM

C=CC(=O)N1CCN(c2nc(OCC3CC(=O)N(C)C3)nc3c(Oc4c(Cl)c(F)cc5[nH]ncc45)nccc23)CC1 (stereo not drawn) [Example 03J, 4-[({4-(4-acryloylpiperazin-1-yl)-8-[(5-chloro-6-fluoro-1H-indazol-4-yl)oxy]pyrido[3,4-d]pyrimidin-2-yl}oxy)methyl]-1-methylpyrrolidin-2-one]
MSRA (% modification) 5.0 μM 0.25 hr [1]: 77%
IC50 [2]: 0.855 µM

C=CC(=O)N1CCN(c2nc(OCC3CCN(C(C)=O)C3)nc3c(Oc4c(Cl)c(F)cc5[nH]ncc45)nccc23)CC1 (stereo not drawn) [Example 05J, 1-(4-{2-[(1-acetylpyrrolidin-3-yl)methoxy]-8-[(5-chloro-6-fluoro-1H-indazol-4-yl)oxy]pyrido[3,4-d]pyrimidin-4-yl}piperazin-1-yl)prop-2-en-1-one]
MSRA (% modification) 5.0 μM 0.25 hr [1]: 81%
IC50 [2]: 1.07 µM

C=CC(=O)N1CCN(c2ncnc3c(Oc4c(Cl)ccc5[nH]ncc45)cccc23)[C@@H](C)C1 [Example 09C, 1-[(3S)-4-{8-[(5-chloro-1H-indazol-4-yl)oxy]quinazolin-4-yl}-3-methylpiperazin-1-yl]prop-2-en-1-one]
MSRA (% modification) 10 μM 0.50 hr [1]: 34%
IC50 [2]: 2.87 µM

C=CC(=O)N1CCN(c2nc(OC[C@@H]3CCCN3C)nc3c(Oc4c(Cl)c(F)cc5[nH]ncc45)nc(Cl)cc23)C[C@H]1C [Example 04G, 1-[(2R)-4-(6-chloro-8-[(5-chloro-6-fluoro-1H-indazol-4-yl)oxy]-2-{[(2S)-1-methylpyrrolidin-2-yl]methoxy}pyrido[3,4-d]pyrimidin-4-yl)-2-methylpiperazin-1-yl]prop-2-en-1-one]
MSRA (% modification) 10 μM 0.25 hr [1]: 49%
IC50 [2]: 0.393 µM

C=CC(=O)N1CCN(c2nc(OC[C@@H]3CCCN3C)nc3c(Oc4c(C)ccc5[nH]ncc45)nc(Cl)cc23)CC1 [Example 03G, 1-[4-(6-chloro-8-[(5-methyl-1H-indazol-4-yl)oxy]-2-{[(2S)-1-methylpyrrolidin-2-yl]methoxy}pyrido[3,4-d]pyrimidin-4-yl)piperazin-1-yl]prop-2-en-1-one]
MSRA (% modification) 10 μM 0.25 hr [1]: 72%
IC50 [2]: 0.155 µM

C=CC(=O)N1CCN(c2nc(N3CC(N(C)C)C3)nc3c(Oc4c(C)ccc5[nH]ncc45)cccc23)CC1 [Example 02E, 1-(4-{2-[3-(dimethylamino)azetidin-1-yl]-8-[(5-methyl-1H-indazol-4-yl)oxy]quinazolin-4-yl}piperazin-1-yl)prop-2-en-1-one]
MSRA (% modification) 10 μM 0.50 hr [1]: 32%
IC50 [2]: 6.46 µM

C=CC(=O)N1CCN(c2nc(OCCCN(C)C)nc3c(Oc4c(C)ccc5[nH]ncc45)nccc23)CC1 [Example 04B, 1-(4-{2-[3-(dimethylamino)propoxy]-8-[(5-methyl-1H-indazol-4-yl)oxy]pyrido[3,4-d]pyrimidin-4-yl}piperazin-1-yl)prop-2-en-1-one]
MSRA (% modification) 10 μM 0.50 hr [1]: 21%
IC50 [2]: 23 µM

C=CC(=O)N1CCN(c2nc(OCCCN(C)C)nc3c(Oc4c(Cl)c(C)cc5[nH]ncc45)cc(Cl)cc23)CC1 [Example 12E, 1-(4-{6-chloro-8-[(5-chloro-6-methyl-1H-indazol-4-yl)oxy]-2-[3-(dimethylamino)propoxy]quinazolin-4-yl}piperazin-1-yl)prop-2-en-1-one]
MSRA (% modification) 10 μM 0.50 hr [1]: 79%
IC50 [2]: 0.835 µM

C=CC(=O)N1CCN(c2ncnc3c(Oc4c(C)c(Cl)cc5[nH]ncc45)nccc23)C[C@H]1C [Example 24A, 1-[(2R)-4-{8-[(6-chloro-5-methyl-1H-indazol-4-yl)oxy]pyrido[3,4-d]pyrimidin-4-yl}-2-methylpiperazin-1-yl]prop-2-en-1-one]
MSRA (% modification) 10 μM 0.50 hr [1]: 20%
IC50 [2]: 4.72 µM

C=CC(=O)N1CCN(c2nc(OCc3cccnc3)nc3c(Oc4c(Cl)c(F)cc5[nH]ncc45)nccc23)CC1 [Example 07H, 1-(4-{8-[(5-chloro-6-fluoro-1H-indazol-4-yl)oxy]-2-(pyridin-3-ylmethoxy)pyrido[3,4-d]pyrimidin-4-yl}piperazin-1-yl)prop-2-en-1-one]
MSRA (% modification) 5.0 μM 0.25 hr [1]: 66%
MSRA (% modification) 10 μM 0.25 hr [1]: 77%
IC50 [2]: 0.285 µM

C=CC(=O)N1CCN(c2ncnc3c(Oc4c(Cl)c(C)cc5[nH]ncc45)nc(C)cc23)CC1 [Example 05C, 1-(4-{8-[(5-chloro-6-methyl-1H-indazol-4-yl)oxy]-6-methylpyrido[3,4-d]pyrimidin-4-yl}piperazin-1-yl)prop-2-en-1-one]
MSRA (% modification) 10 μM 0.50 hr [1]: 61%
IC50 [2]: 1.29 µM

C=CC(=O)N1CCN(c2ncnc3c(Nc4c(C)ccc5[nH]ncc45)nccc23)CC1 [Example 05, 1-(4-{8-[(5-methyl-1H-indazol-4-yl)amino]pyrido[3,4-d]pyrimidin-4-yl}piperazin-1-yl)prop-2-en-1-one]
MSRA (% modification) 10 μM 0.50 hr [1]: 5%
IC50 [2]: 29.3 µM

C=CC(=O)N1CCN(c2nc(OC[C@@H]3C[C@H](F)CN3C)nc3c(Oc4c(Cl)c(F)cc5[nH]ncc45)nccc23)CC1 [Example 11H, 1-[4-(8-[(5-chloro-6-fluoro-1H-indazol-4-yl)oxy]-2-{[(2S,4S)-4-fluoro-1-methylpyrrolidin-2-yl]methoxy}pyrido[3,4-d]pyrimidin-4-yl)piperazin-1-yl]prop-2-en-1-one]
MSRA (% modification) 10 μM 0.25 hr [1]: 80%
IC50 [2]: 0.237 µM

C=CC(=O)N1CCN(c2nc(OC[C@@H]3CCCN3C)nc3c(Oc4c(Cl)ccc5[nH]ncc45)cccc23)CC1 [Example 02L, 1-[4-(8-[(5-chloro-1H-indazol-4-yl)oxy]-2-{[(2S)-1-methylpyrrolidin-2-yl]methoxy}quinazolin-4-yl)piperazin-1-yl]prop-2-en-1-one]
MSRA (% modification) 5.0 μM 0.25 hr [1]: 31%
IC50 [2]: 0.146 µM

C=CC(=O)N1CCN(c2nc(O[C@@H]3CN(C)C[C@H]3OC)nc3c(Oc4c(Cl)c(Cl)cc5[nH]ncc45)nccc23)CC1 [Example 19H, 1-[4-(8-[(5,6-dichloro-1H-indazol-4-yl)oxy]-2-{[(3R,4R)-4-methoxy-1-methylpyrrolidin-3-yl]oxy}pyrido[3,4-d]pyrimidin-4-yl)piperazin-1-yl]prop-2-en-1-one]
MSRA (% modification) 5.0 μM 0.017 hr [1]: 66%
IC50 [2]: 0.004 µM
